Measured values as given in patent US8158589B2, “Peptides with the capacity to bind to transforming growth factor β1 (TGF-β1)” (Proyecto Biomedicine Cima, S.L., priority 2003, dated 2012).
Ends that are not written are not given here.

Key:
TGF-β1 [1] = target: T1, TGF-β1 (Rattus norvegicus, UniProt P17246); experiment: Corneal fibrosis and haze after 1 N NaOH damage, topical eye drops, photographs analysed with ImageJ; format: in vivo, Long-Evans rats; details: fifth formulation eye drops, treated right eye vs control left eye
T1 construct: from tissue; host or cells: cornea of Long-Evans rats
Excerpt: Male Long-Evans rats aged 10 weeks were used, divided into 5 groups: • Group 1: 12 rats, 6 treated with dexamethasone and 6 treated with mitomycin C • Group 2: 12 rats, 6 treated with p17 of the first formulation (see section 6.1.2.b) and 6 treated with p144 of the first formulation (see section 6.1.2.b) • Group 3: 12 rats, 6 treated with p17 of the second formulation (see section 6.1.2.b) and 6 treated with p144 of the second formulation (see section 6.1.2.b) • Group 4: 12 rats, 6 treated with p17 of the third formulation (see section 6.1.2.b) and 6 treated with p144 of the third formulation (see section 6.1.2.b) • Group 5: 12 rats, 6 treated with p17 of the fourth formulation (see section 6.1.2.b) and 6 treated with p144 of the fourth formulation (see section 6.1.2.b) • Group 6: 12 rats, 6 treated with p17 of the fifth formulation (see section 6.1.2.b) and 6 treated with p144 of the fifth formulation (see section 6.1.2.b)
To perform the damage in the cornea, the animals were anesthetized with isoflurane and a 5 mm Whatman paper disc impregnated in 1 N NaOH for 30 seconds was applied to them in the central part of the eye. After the damage, they were washed with abundant physiological saline serum and an antibiotic ointment was applied to them to prevent possible infections in the affected area.
After conducting several in vivo studies with the previously described groups of animals, it could be concluded that the chemical damage occurring after the application of NaOH for 30 seconds caused an excessive lesion for the study which was to be conducted, therefore it was decided to conduct new experiments reducing the time to 15 seconds.
It was randomly established that the left eye of each animal would act as a control and that the right eye would be the treated eye, such that the same animals acts as a control in addition to being treated. It must be pointed out that all the animals received antibiotic treatment in both eyes daily only during the first week of the study for the purposes of avoiding microbial keratitis.
Starting from 0.15% sodium hyaluronate (Hyabak 10 mL, Thea) without preservatives: • p144: 20 mg were dissolved in 5 ml of eye drops, 40 μl of saturated concentrated NaOH were incorporated, stirring and adding in portions of 5 μl. It was sonicated until solubilization. To adjust the pH, 500 μl of 1M Hepes were added, such that the pH changed from 10.5 to 7 • p144 control: 40 μl of saturated NaOH and 500 μl of 1 M HEPES (final concentration of HEPES 50 mM) • p17: 20 mg were dissolved in 5 ml of the eye drops, it was sonicated until complete solubilization and it was incorporated to the vial with a 10 ml syringe and a blue needle to perforate the filter of the contained (final concentration 2 mg/ml) • p17 control: non-manipulated eye drops • Note: The formulations were maintained at 4° C. throughout the study.
The administration of the treatment was initiated twenty-four hours after the damage. After that time a follow-up of the damage was performed, which consisted of taking photographs at days 0, 7, 14, 21, 28 and 35. To take the photographs the animals were anesthetized with isoflurane. Photographs were taken of both the control eye (left) and of the treated eye (right) with and without fluorescein. The photographs with fluorescein allowed to observe the evolution of the epithelial closure of the generated lesion, whereas the photographs without fluorescein show the evolution of the haze of the lesioned area. […]

TGF-β1 [2] = target: T2, TGF-β1 (Homo sapiens, UniProt P01137); experiment: Western Blot of p-Smad2, Smad2/3 and Smad7 in primary culture of rabbit corneal fibroblasts; format: cell-based; design: host or cells: added to a primary culture of rabbit corneal fibroblasts
Protocol: (§1) Therefore, Western Blot and immunofluorescence studies were conducted to determine, from cells extracted from the in vivo studies, the signaling pathway used by the peptides administered topically. It should be emphasized that said studies were conducted on fibroblasts from rabbit cornea and not from rat cornea. This decision was made due to the difficulty entailed in isolating fibroblasts from rodent eyes.
Since the scientific literature repeatedly describes the TGF-β1 signaling pathways, the decision was made to go into depth in such pathways by means of the techniques described in the methodology section. Said pathways involve the study of the Smad protein family, specifically the study of the isoforms Smad2, 2/3 and 7.
To that end, protein extracts obtained from the primary culture of rabbit fibroblasts were treated with TGF-β1 at concentrations of 0, 3 and 5 ng/ml and, 50 and 200 μg/ml of peptide p17 and p144.

TGF-β1 [3] = target: T3, TGF-β1 (Mus musculus, UniProt P04202); experiment: Model of acute liver damage induced by CCl4, type I collagen mRNA by real time PCR; format: in vivo, mice
T3 construct: from tissue; host or cells: liver of Balb/C mice (CCl4 model); lung of C57BL/6 mice (bleomycin model)
Protocol: Acute liver damage generates a cascade of effects and physiological responses, including elevations in the concentrations of TGF-β1. This elevation is responsible for the expression of the type I collagen gene, among others. In this model of acute liver damage, female Balb/C mice weighing 25 to 30 g, were orally administered a dose of 2 μl of CCl4 (per gram of body weight) dissolved in an equivalent volume of corn oil (volumetric ratio of 1:1). The control group received an equivalent volume of corn oil only, and the treated groups received (following the single oral administration of CCl4 in corn oil) 50 μg of peptide in 500 μl of 1% physiological saline solution in DMSO (dimethyl sulfoxide) every 24 h. After 72 hours all animals were sacrificed, and the liver samples were processed. To evaluate mRNA expression, liver tissue was frozen in liquid nitrogen and stored at −80° C. until further use. Other liver tissue samples were stored in OCT® or Tissue-Tek® (Sakura Finetek B.V.) and processed in the same way as the samples used for mRNA studies. Other liver samples were fixed in 10% buffered formalin solution, embedded in paraffin and processed for their histological evaluation. The amount of mRNA encoding type I collagen was quantified in all groups using a quantitative polymerase chain reaction (PCR) technique. […] The capacity of the testing peptides to block the acute damage, as assessed by measuring the levels of induced type I collagen mRNA was quantified by real time PCR. […] The peptides tested were obtained by conventional solid peptide synthesis procedures (Merrifield R B. J Am Chem Soc 1963; 85:2149-2154; Atherton E et al. J Chem Soc Perkin Trans 1981; 1:538-546).

TGF-β1 [4] = target: T2, TGF-β1; experiment: Immunofluorescence of p-Smad2 translocation to the nucleus in rabbit corneal fibroblasts; format: cell-based; design: host or cells: added to a primary culture of rabbit corneal fibroblasts; details: TGF-β1 treated rabbit corneal fibroblasts
Protocol: as §1

[5] = primary culture, TGF-β1 and peptide

T2 sequence (P01137 279-390 limits assumed, species assumed): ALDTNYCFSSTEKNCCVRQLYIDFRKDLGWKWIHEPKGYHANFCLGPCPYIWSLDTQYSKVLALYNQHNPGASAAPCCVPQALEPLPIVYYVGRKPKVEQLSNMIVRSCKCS
T1 sequence (P17246 279-390 limits assumed): as the sequence (P01137 279-390 limits assumed, species assumed) above, with A75S counted along it
T3 sequence (P04202 279-390 limits assumed): as the sequence (P01137 279-390 limits assumed, species assumed) above, with A75S counted along it

## TSLDASIIWAMMQN [P144]
TGF-β1 [1]
  corneal haze: clear decrease
  epithelial closure (fluorescein): clear decrease
TGF-β1 [2]; peptide 50 μg/ml
  expression of p-Smad2: slight inhibition
TGF-β1 [2]; peptide 200 μg/ml
  expression of p-Smad2: reaching the values of the controls
TGF-β1 [2]; [5]
  expression of Smad 2/3: not affected
  expression of Smad 7: not modified
TGF-β1 [3]; Balb/C mice, oral CCl4, 50 μg of peptide every 24 h, sacrifice after 72 hours
  % Inhibition of type I collagen mRNA induction (in vivo TGF-β1 biological activity): −3.51 ± 36%
TGF-β1 [3]; acute liver damage, type I collagen mRNA
  inhibition of the biological activity of TGF-β1 in vivo (in words): does not show any activity
TGF-β1 [4]
  translocation of p-Smad2 to the nucleus: inhibited
